Experimental data: patent US9751919B2, “Antimicrobial compositions comprising a hyaluronic acid binding peptide and a β-lactam antibiotic” (priority 2012, dated 2017)
Values joined by “and” are separate entries in the source; they are usually repeats but may differ in a detail not shown here. Equal entries are not always repeated. Marks after values point to notes of the source that are not given here.

What was measured:
HA-MRSA = assay: Checkerboard assay (FIC index); assay type: cell-based, Staphylococcus aureus
Description: Checkerboard assays were carried out as described by Bonapace et al.
Diagnostic Microbiology and Infectious Diseases 2002; 44:363-366. In brief, checkerboard assays were performed in 96 well microtitre trays using an 8-by-8 well configuration. […] 96-well custom designed microtitre plates contained 100 ul/well of cation adjusted Mueller-Hinton broth (eg. for Enterobacteriaceae) with or without lysed horse blood (2-5% V/V) [eg. for S. pneumoniae] and were inoculated to achieve a final concentration of approximately 5×10^5 CFU/ml and incubated in ambient air for 24 hours prior to reading. Colony counts were performed periodically to confirm inocula. Quality control was performed every two weeks using a variety of ATCC QC organisms including; S. pneumoniae 49619, S. aureus 29213, E. faecalis 29212, E. coli 25922 and P. aeruginosa 27853. […] All peptides were assessed for synergy with β-lactams and vancomycin. For all antimicrobials as well as the peptides, CLSI criteria were used.
(§1) The fractional inhibitory concentration index (FIC index) was used to interpret synergy, antagonism or additivity/indifference. FIC index=FIC of drug A+FIC of drug B where:
The FIC of drug A and drug B was calculated as follows, FIC drug A=MIC of drug A in combination/MIC of drug A alone and FIC of drug B=MIC of drug B in combination/MIC of drug B alone. Synergy was defined as FIC index ≦0.5, additivity/indifference defined as a FIC between 0.5 and 4 and antagonism defined as an FIC index >4.
The fractional inhibitory concentration index (FIC index) was used to interpret synergy, antagonism or additivity/indifference. FIC index=FIC of drug A+FIC of drug B where the FIC of drug A and drug B was calculated as follows, FIC drug A=MIC of drug A in combination/MIC of drug A alone and FIC of drug B=MIC of drug B in combination/MIC of drug B alone. Synergy was defined as FIC index ≦0.5, additivity/indifference defined as an FIC of between 0.5 and 4 and antagonism defined as an FIC index >4.
(§2) The checkerboard assays were carried out as described by Eliopoulos and Moellering (Chapter 9) in Antibiotic in Laboratory Medicine, Lorian Ed. 1996 as well as Bonapace et al. Diagnostic Microbiology and Infectious Diseases 2002; 44:363-366 and Bonapace et al. Diagnostic Microbiology and Infectious Diseases 2000; 38:43-50. In brief, checkerboard assays were performed in 96 well microtitre trays using an 8-by-8 well configuration. […] 96-well custom designed microtitre plates contained 100 ul/well of cation adjusted Mueller-Hinton broth (eg. for Enterobacteriaceae) with or without lysed horse blood (2-5% V/V) [eg. for S. pneumoniae] and were inoculated to achieve a final concentration of approximately 5×10^5 CFU/ml and incubated in ambient air for 24 hours prior to reading. Colony counts were performed periodically to confirm inocula. Quality control was performed every two weeks using a variety of ATCC QC organisms including; S. pneumoniae 49619, S. aureus 29213, E. faecalis 29212, E. coli 25922 and P. aeruginosa 27853.
(§3) The FIC of drug A and drug B is calculated as follows, FIC drug A=MIC of drug A in combination/MIC of drug A alone and FIC of drug B=MIC of drug B in combination/MIC of drug B alone. Synergy is defined as FIC index ≦0.5, additivity/indifference FIC >0.5-4 and antagonism FIC index >4.
These agents were obtained as laboratory grade powders from their respective manufacturers. Stock solutions were prepared and dilutions made as described by the Clinical Laboratory Standards Institute (2005 CLSI).

S. pneumoniae = assay: Checkerboard assay (FIC index); assay type: cell-based, Streptococcus pneumoniae; settings: antibiotic combined with PEP35;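 note: each agent diluted from 0.03 to 4 times its MIC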
Description: as §2, with “27853. For all antimicrobials as well as PEP35, CLSI criteria was used.” for “27853.”
as §1, §3
Antimicrobials used included PEP35, cefazolin, ceftriaxone, vancomycin, linezolid, tigecycline and daptomycin versus Gram-positive cocci and PEP35, gentamicin, levofloxacin, piperacillin/tazobactam, meropenem and colistin (Polymyxin E) versus Gram-negative bacilli. These agents were obtained as laboratory grade powders from their respective manufacturers. Stock solutions were prepared and dilutions made as described by the Clinical Laboratory Standards Institute (2005 CLSI).
Organisms included Gram-positive cocci (2 strains of each): Methicillin-susceptible Staphylococcus aureus (MSSA), community-associated (CA) and healthcare-associated (HA) methicillin-resistant Staphylococcus aureus (MRSA), vancomycin-intermediate Staphylococcus aureus (VISA), vancomycin-resistant Staphylococcus aureus (VRSA), methicillin-resistant Staphylococcus epidermidis (MRSE), Streptococcus pyogenes, Streptococcus agalactiae, Streptococcus pneumoniae, Enterococcus faecalis, Enterococcus faecium and vancomycin-resistant enterococcus (VRE). Gram-negative bacilli tested (2 strains of each) included: E. coli, Pseudomonas aeruginosa, Klebsiella pneumoniae, K. oxytoca, Enterobacter cloacae, P. mirabilis and Stenotrophomonas maltophilia. MIC testing, following two subcultures from frozen stock were determined by the CLSI 2005 approved broth microdilution method.

[1] = antibiotic combined with PEP35 (added together), HA-MRSA 70798 (USA100/800)
[2] = β-lactam combined with HybPEP35-1, HA-MRSA 70798 (USA100/800)
[3] = β-lactam combined with PEP-52, HA-MRSA 70798 (USA100/800)
[4] = β-lactam combined with Scrambled PEP35, HA-MRSA 70798 (USA100/800)
[5] = S. pneumoniae-Pen I 72302 (MHB)
[6] = S. pneumoniae-Pen I 78663 (MHB)
[7] = S. pneumoniae-Pen R 76065 (MHB)
[8] = S. pneumoniae-Pen R 78519 (MHB)
[9] = S. pneumoniae-Pen S 70400 (MHB)
[10] = S. pneumoniae-Pen S 71263 (MHB)
[11] = antibiotic combined with PEP35 (added together), HA-MRSA 77090 (USA100/800)

Compound	Avg ΣFIC (range) (HA-MRSA; [1])	Avg ΣFIC (range) (HA-MRSA; [2])	Avg ΣFIC (range) (HA-MRSA; [3])	Avg ΣFIC (range) (HA-MRSA; [4])	Avg ΣFIC (range) (S. pneumoniae; [5])	Avg ΣFIC (range) (S. pneumoniae; [6])	Avg ΣFIC (range) (S. pneumoniae; [7])	Avg ΣFIC (range) (S. pneumoniae; [8])	Avg ΣFIC (range) (S. pneumoniae; [9])	Avg ΣFIC (range) (S. pneumoniae; [10])	Avg ΣFIC (range) (HA-MRSA; [11])
C[C@@H](O)[C@H]1C(=O)N2C(C(=O)O)=C(S[C@@H]3CN[C@H](C(=O)N(C)C)C3)[C@H](C)[C@H]12 [Meropenem]	0.30	0.38	>1*	0.38	–	–	–	–	–	–	–
CN[C@H](CC(C)C)C(=O)N[C@H]1C(=O)N[C@@H](CC(N)=O)C(=O)N[C@H]2C(=O)N[C@H]3C(=O)N[C@H](C(=O)N[C@H](C(=O)O)c4cc(O)cc(O)c4-c4cc3ccc4O)[C@H](O)c3ccc(c(Cl)c3)Oc3cc2cc(c3O[C@@H]2O[C@H](CO)[C@@H](O)[C@H](O)[C@H]2O[C@H]2C[C@](C)(N)[C@H](O)[C@H](C)O2)Oc2ccc(cc2Cl)[C@H]1O [Vancomycin]	1.19 (1.03-1.5)	–	–	–	1.26 (1.06-1.5)	1.1 (1.0-1.25)	0.86 (0.53-1.25)	1.2 (1.015-1.5)	0.91 (0.56-1.25)	1.05 (0.75-1.25)	0.95 (0.56-1.25)
Cc1nnc(SCC2=C(C(=O)O)N3C(=O)[C@@H](NC(=O)Cn4cnnn4)[C@H]3SC2)s1 [Cefazolin]	–	0.35	>1*	0.35	1.1 (1.0-1.25)	1.1 (1.0-1.25)	0.70 (0.53-1.06)	0.97 (0.75-1.12)	0.68 (0.515-1.06)	0.99 (0.62-1.25)	0.30 (0.12-0.56) and 0.24 (0.075-0.53)
CC(=O)NC[C@H]1CN(c2ccc(N3CCOCC3)c(F)c2)C(=O)O1 [Linezolid, linezolid]	0.70 (0.5-1.06)	–	–	–	0.86 (0.56-1.12)	1.05 (0.75-1.25)	0.74 (0.53-1.12)	0.92 (0.75-1.12)	0.63 (0.5-1.06)	0.92 (0.62-1.12)	0.74 (0.53-1.06)
CN(C)c1cc(NC(=O)CNC(C)(C)C)c(O)c2c1C[C@H]1C[C@H]3[C@H](N(C)C)C(O)=C(C(N)=O)C(=O)[C@@]3(O)C(O)=C1C2=O [Tigecycline, tigecycline]	0.77 (0.5-1.06)	–	–	–	0.68 (0.53-1.03)	1.0 (0.56-1.12)	0.91 (0.62-1.12)	0.98 (0.75-1.12)	0.91 (0.62-1.12)	0.92 (0.56-1.25)	0.83 (0.5-1.12)
CCCCCCCCCC(=O)N[C@@H](Cc1c[nH]c2ccccc12)C(=O)N[C@H](CC(N)=O)C(=O)N[C@@H](CC(=O)O)C(=O)N[C@@H]1C(=O)NCC(=O)N[C@@H](CCCN)C(=O)N[C@@H](CC(=O)O)C(=O)N[C@H](C)C(=O)N[C@@H](CC(=O)O)C(=O)NCC(=O)N[C@H](CO)C(=O)N[C@@H]([C@H](C)CC(=O)O)C(=O)N[C@@H](CC(=O)c2ccccc2N)C(=O)O[C@@H]1C [Daptomycin, daptomycin]	0.99 (0.53-1.5)	–	–	–	0.99 (0.62-1.25)	1.19 (1.03-1.5)	1.09 (0.56-1.5)	1.19 (1.03-1.5)	1.21 (1.03-1.5)	1.39 (1.03-2.5)	1.27 (1.015-2.03)
CO/N=C(\C(=O)N[C@@H]1C(=O)N2C(C(=O)O)=C(CSc3nc(=O)c(=O)[nH]n3C)CS[C@H]12)c1csc(N)n1 [Ceftriaxone]	–	0.32	>1*	0.32	1.05 (0.75-1.25)	1.1 (1.0-1.25)	1.21 (1.03-1.5)	1.05 (0.75-1.25)	0.99 (0.62-1.06)	0.91 (0.62-1.12)	0.27 (0.09-0.53) and 0.27 (0.09-0.56)
